The values below come from article PMC9553805 (Clinical Pharmacokinetics, 2022).

For data set [1], the target named is T1, CYP3A4 (Homo sapiens, UniProt P08684). The experiment in a line: Part D: effect of steady-state tucatinib on pharmacokinetics of midazolam. The note with it: for clinical classification as inhibitor of CYP3A/CYP3A4: steady-state tucatinib 300 mg BID, midazolam probe.
Data set [2] deals with CYP2C9 (Homo sapiens, UniProt P11712). The experiment in a line: Part D: effect of steady-state tucatinib on pharmacokinetics of tolbutamide.
Data set [3] deals with P-glycoprotein (P-gp) (Homo sapiens, UniProt P08183). The experiment in a line: Part E: effect of steady-state tucatinib on pharmacokinetics of digoxin. Format: in vivo. The note with it: for clinical classification as inhibitor of P-glycoprotein: steady-state tucatinib 300 mg BID, digoxin probe.
The test system of a further data set is CYP3A4/CYP2C8. The experiment in a line: Part B: effect of rifampin. Format: in vivo, human.
For data set [4], the target named is T2, CYP2C8 (Homo sapiens, UniProt P10632).
T2 sequence (P10632 1-490): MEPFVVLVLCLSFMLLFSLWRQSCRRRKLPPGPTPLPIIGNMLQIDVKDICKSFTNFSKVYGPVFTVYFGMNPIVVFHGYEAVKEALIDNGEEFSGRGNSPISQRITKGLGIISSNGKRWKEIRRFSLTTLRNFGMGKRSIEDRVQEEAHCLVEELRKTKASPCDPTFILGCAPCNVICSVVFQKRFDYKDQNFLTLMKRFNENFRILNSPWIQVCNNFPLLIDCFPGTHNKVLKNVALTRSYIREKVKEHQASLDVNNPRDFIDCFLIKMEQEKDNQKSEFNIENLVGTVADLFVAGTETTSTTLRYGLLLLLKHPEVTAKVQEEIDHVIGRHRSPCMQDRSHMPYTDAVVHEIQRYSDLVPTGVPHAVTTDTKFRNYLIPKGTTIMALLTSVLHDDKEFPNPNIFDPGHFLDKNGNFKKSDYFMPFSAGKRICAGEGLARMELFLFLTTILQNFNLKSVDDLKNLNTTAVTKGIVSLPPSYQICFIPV

For data set [5], the target named is T1, CYP3A4. The experiment in a line: Part A: effect of itraconazole. Format: in vivo.
For data set [6] the following is noted: humans, cited from earlier work.
In data set [7] the target is T2, CYP2C8. The note with it: for clinical classification as inhibitor of CYP2C8: steady-state tucatinib 300 mg BID, repaglinide probe.
In data set [8] the test system is P-glycoprotein (P-gp). The note with it: in vitro; cited from earlier work.
The nature of the next data set: Safety assessments. Format: in vivo, human.
Data set [9] relates to CYP2C9. The note with it: in vitro; cited from earlier work.
The conditions of data set [10]: cited from earlier work.
For data set [11], the system named is CYP2C8. Format: in vivo, human. The note with it: 84 subjects enrolled in this study; regardless of phenotype.
In data set [12] the test system is CYP3A4. The note with it: in vitro; cited from earlier work.
Data set [13] relates to CYP2C8. The note with it: in vitro; cited from earlier work.
Where [14] appears, read: with tucatinib vs tolbutamide/midazolam alone.
Setting [15] is: tolbutamide/midazolam + tucatinib vs tolbutamide/midazolam alone.
Where [16] appears, read: digoxin + tucatinib vs digoxin alone.
Where [17] appears, read: in the presence of rifampin vs tucatinib alone.
Setting [18] is: following gemfibrozil vs tucatinib alone.
Setting [19] is: coadministration of itraconazole vs tucatinib alone.
Where [20] appears, read: tucatinib + rifampin vs tucatinib alone.
The mark [21] stands for this setting: tucatinib + gemfibrozil vs tucatinib alone.
[22] abbreviates: tucatinib + itraconazole vs tucatinib alone.

Several values for one entry are separate records, joined by “and”; a condition that tells them apart may be missing. Equal values may be shown once. Read-outs that look alike come from different tables or passages of the source.

T1 sequence (P08684 whole entry): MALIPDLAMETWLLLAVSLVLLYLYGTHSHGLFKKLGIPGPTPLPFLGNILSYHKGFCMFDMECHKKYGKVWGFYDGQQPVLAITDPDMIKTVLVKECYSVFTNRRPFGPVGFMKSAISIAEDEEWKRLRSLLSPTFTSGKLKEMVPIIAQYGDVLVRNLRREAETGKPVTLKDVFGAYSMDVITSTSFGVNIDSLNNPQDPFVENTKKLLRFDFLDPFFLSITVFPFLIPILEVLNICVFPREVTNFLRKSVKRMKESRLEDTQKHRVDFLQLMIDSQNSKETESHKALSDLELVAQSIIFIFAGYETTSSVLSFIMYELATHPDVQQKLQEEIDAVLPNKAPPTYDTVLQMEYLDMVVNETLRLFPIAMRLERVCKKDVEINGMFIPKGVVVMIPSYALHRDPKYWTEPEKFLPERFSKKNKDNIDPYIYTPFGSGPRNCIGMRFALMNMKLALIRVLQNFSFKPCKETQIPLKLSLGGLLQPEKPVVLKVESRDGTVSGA
Sequence of P-glycoprotein (P-gp) (Homo sapiens, UniProt P08183) (P08183 whole entry): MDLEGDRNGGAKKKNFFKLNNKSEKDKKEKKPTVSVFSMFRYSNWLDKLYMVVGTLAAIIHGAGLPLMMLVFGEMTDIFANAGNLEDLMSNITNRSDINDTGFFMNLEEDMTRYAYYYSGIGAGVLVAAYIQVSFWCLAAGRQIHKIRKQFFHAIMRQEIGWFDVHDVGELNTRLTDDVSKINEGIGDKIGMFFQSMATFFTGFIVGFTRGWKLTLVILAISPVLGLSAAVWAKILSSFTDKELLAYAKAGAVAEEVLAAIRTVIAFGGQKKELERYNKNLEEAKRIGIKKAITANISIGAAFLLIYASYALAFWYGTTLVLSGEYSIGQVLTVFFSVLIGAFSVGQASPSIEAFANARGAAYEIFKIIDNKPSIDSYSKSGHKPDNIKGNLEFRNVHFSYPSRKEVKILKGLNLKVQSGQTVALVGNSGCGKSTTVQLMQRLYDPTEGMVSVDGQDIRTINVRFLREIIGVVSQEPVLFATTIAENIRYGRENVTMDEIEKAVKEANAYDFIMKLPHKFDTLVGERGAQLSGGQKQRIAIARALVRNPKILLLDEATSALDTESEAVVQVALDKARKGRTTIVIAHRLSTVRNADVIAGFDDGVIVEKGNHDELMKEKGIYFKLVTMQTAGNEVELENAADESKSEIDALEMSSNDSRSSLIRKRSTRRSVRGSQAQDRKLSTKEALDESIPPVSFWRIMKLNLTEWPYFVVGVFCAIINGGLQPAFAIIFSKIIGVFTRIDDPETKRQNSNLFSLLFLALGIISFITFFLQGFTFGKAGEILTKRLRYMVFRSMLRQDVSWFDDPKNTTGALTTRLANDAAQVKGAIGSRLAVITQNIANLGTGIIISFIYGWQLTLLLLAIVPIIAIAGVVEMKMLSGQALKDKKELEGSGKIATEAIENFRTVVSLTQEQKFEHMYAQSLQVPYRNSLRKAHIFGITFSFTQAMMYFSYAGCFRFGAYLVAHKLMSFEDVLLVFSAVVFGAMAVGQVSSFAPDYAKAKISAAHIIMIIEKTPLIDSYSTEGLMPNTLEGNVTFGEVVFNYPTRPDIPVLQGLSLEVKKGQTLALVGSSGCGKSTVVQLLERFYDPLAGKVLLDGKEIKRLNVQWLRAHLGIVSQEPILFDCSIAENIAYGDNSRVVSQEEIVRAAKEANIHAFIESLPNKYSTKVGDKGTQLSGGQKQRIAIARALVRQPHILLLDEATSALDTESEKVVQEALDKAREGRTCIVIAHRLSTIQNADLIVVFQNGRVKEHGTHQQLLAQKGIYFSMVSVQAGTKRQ
Sequence of CYP2C9 (Homo sapiens, UniProt P11712) (P11712 whole entry): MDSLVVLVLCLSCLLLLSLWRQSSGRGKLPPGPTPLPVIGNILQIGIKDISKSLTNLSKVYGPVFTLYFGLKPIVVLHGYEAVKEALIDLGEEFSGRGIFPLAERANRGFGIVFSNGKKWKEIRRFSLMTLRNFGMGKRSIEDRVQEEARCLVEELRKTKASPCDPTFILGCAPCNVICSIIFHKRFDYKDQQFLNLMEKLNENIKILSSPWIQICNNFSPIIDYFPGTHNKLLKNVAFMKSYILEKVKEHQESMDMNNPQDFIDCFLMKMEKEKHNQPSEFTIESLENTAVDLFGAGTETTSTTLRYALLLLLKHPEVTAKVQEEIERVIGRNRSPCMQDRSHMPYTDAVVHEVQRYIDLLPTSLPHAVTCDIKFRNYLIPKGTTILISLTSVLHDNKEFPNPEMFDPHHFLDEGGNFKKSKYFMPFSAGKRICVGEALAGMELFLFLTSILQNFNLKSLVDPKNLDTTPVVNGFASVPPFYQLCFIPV

Regarding `OCc1ncc2n1-c1ccc(Cl)cc1C(c1ccccc1F)=NC2` [1-hydroxymidazolam], at CYP3A4 [1] (setting [14]), the “effect of tucatinib on exposure based on AUC0–last and AUC0–inf” value is recorded as “no effect”; the “reduction of Cmax” value is recorded as “approximately 40%”.
Regarding `CCCCNC(=O)NS(=O)(=O)c1ccc(CO)cc1` [4-hydroxytolbutamide, reference compound], the “plasma exposures with vs without tucatinib” value on CYP2C9 [2] (setting [15]) was “Similar”.
Take `C[C@H]1O[C@@H](O[C@H]2[C@@H](O)C[C@H](O[C@H]3[C@@H](O)C[C@H](O[C@H]4CC[C@@]5(C)[C@H](CC[C@@H]6[C@@H]5C[C@@H](O)[C@]5(C)[C@@H](C7=CC(=O)OC7)CC[C@]65O)C4)O[C@@H]3C)O[C@@H]2C)C[C@H](O)[C@@H]1O` [Digoxin, digoxin]: at P-glycoprotein (P-gp) [3] (setting [16]), the “increase in plasma exposure based on AUC0–inf” value (from here on “increase … on AUC0–inf”) is given as “approximately 1.5 fold”, the “increase in plasma exposure based on AUC0–last” value (“increase … on AUC0–last” for short) is “approximately 1.5 fold” and the “increase in plasma exposure based on Cmax” value (from here on “increase … on Cmax”) is listed as approximately 2.4 fold.
Consider `Cc1ncc2n1-c1ccc(Cl)cc1C(c1ccccc1F)=NC2` [Midazolam, midazolam], for which, on CYP3A4 [1] (setting [15]), the “increase … on AUC0–inf” value was 5.7 fold and > 5 fold; the “increase … on AUC0–last” value turned out to be 5.3 fold; the “increase … on Cmax” value turned out to be 3.0 fold. Also, on CYP3A4 [1] (setting [14]), the “reduction of metabolic ratio for AUC0–inf” value is recorded as “approximately 83%” and the “reduction of metabolic ratio for Cmax” value is on record as approximately 80%.
For `Cc1cc(Nc2ncnc3ccc(NC4=NC(C)(CO)CO4)cc23)ccc1Oc1ccn2ncnc2c1` (stereo not shown) [ONT-993], in the data set on CYP3A4/CYP2C8 (setting [17]), the “metabolic ratio for AUC0–inf, fold higher” value came to 1.4 fold and the “metabolic ratio for Cmax, fold higher” value stood at 3.3 fold. On CYP2C8 [4] (setting [18]), the “decrease of metabolic ratio for AUC0–inf” value is “approximately 71%” and the “decrease of metabolic ratio for Cmax” value was approximately 81%. Further, at CYP3A4 [5] (setting [19]), the “geometric least squares mean ratio for AUC0–inf” value worked out at 1.6 and the “geometric least squares mean ratio for Cmax” value is on record as 2.0. For the same compound, the “radioactive component in feces, share of the dose” value in data set [6] (feces) is on record as 37%. Besides, the “radioactive component in urine, share of the dose” value in [6] (urine) is reported as 1.5%.
Take `CCOc1cc(CC(=O)N[C@@H](CC(C)C)c2ccccc2N2CCCCC2)ccc1C(=O)O` [Repaglinide, repaglinide, reference compound]: the “increase … on Cmax” value on CYP2C8 [7] (repaglinide + tucatinib vs repaglinide alone) is approximately 1.7 fold.
Turning to `Cc1cc(Nc2ncnc3ccc(NC4=NC(C)(C)CO4)cc23)ccc1Oc1ccn2ncnc2c1` [Tucatinib], in the data set with P-glycoprotein (P-gp) [8], the “type of inhibition of P-glycoprotein (P-gp)” value is “competitive inhibition”. In addition, in the data set with CYP3A4/CYP2C8 (setting [20]), the “decrease in plasma exposure based on AUC0–inf” value is recorded as 48%, the “decrease in plasma exposure based on AUC0–last” value is given as “approximately 48%” and the “decrease in plasma exposure based on Cmax” value was approximately 37%. The “decrease in plasma exposure based on AUC0–inf” value with CYP3A4/CYP2C8 (tucatinib + rifampin vs tucatinib alone, listed as tucatinib) was “approximately 48%”. Moreover, the “clinical classification as inhibitor of CYP2C8” value at CYP2C8 [7] is recorded as “weak inhibitor”. Also, the “clinical classification as inhibitor of CYP2C8” value at CYP2C8 [7] (listed as tucatinib) is “only weakly inhibits”. Besides, in “Safety assessments” (Part A), the “participants with serum creatinine increases” value amounted to 50%. The “participants with serum creatinine increases” value in “Safety assessments” (Part B) was 4%. Besides, the “participants with serum creatinine increases” value in the data set “Safety assessments” (Part D) worked out at 71%. In addition, in “Safety assessments” (Part E), the “participants with serum creatinine increases” value was 54%. Further, in “Safety assessments” (Parts A through E overall), the “Grade 3 or higher events” value is reported as “No Grade 3 or higher events”, the “TEAEs considered Grade 1 (events)” value came out at 65 and the “total number of TEAEs” value was 71. Moreover, in “Safety assessments” (Parts A through E overall, 37 of 114 subjects), the “subjects reporting TEAEs” value is 32.5%. Moreover, the tolerability result in the data set “Safety assessments” (Parts A–E, alone and with co-administered drugs) was “well tolerated”. In addition, in the data set “Safety assessments” (Parts D and E), the “events of ALT elevation reported as Grade 1 TEAEs” value is recorded as “five” and the “renal function by cystatin C levels” value is on record as “did not reveal any elevated values”. Besides, on CYP2C8 [4] (setting [21]), the “increase … on AUC0–inf” value was approximately 3.0 fold, the “increase … on AUC0–last” value was “approximately 3.0 fold” and the “increase … on Cmax” value is on record as approximately 1.6 fold. Also, the “type of inhibition of CYP2C9” value in the data set with CYP2C9 [9] is reported as “competitive inhibition”. The “clinical classification as inhibitor of CYP3A/CYP3A4” value at CYP3A4 [1] was “strong inhibitor”. For the same compound, the “clinical classification as inhibitor of CYP3A/CYP3A4” value on CYP3A4 [1] (listed as tucatinib) is “strong CYP3A4 inhibitor”. At CYP3A4 [5] (setting [22]), the “increase … on AUC0–inf” value is ~ 1.3 fold, the “increase … on AUC0–last” value is on record as “approximately 1.3 fold” and the “increase … on Cmax” value was “approximately 1.3 fold”. Also, at CYP2C9 [2] (steady-state tucatinib 300 mg BID, tolbutamide probe), the “impact on CYP2C9-mediated metabolism in humans” value is “no impact”. Moreover, the “impact of food on tucatinib exposures” value in data set [10] was “no clinically relevant impact”. The “tucatinib exposures by CYP2C8 metabolizer phenotype” value in the data set with CYP2C8 [11] is “similar”. In the data set on CYP3A4 [12], the “inactivation of CYP3A” value is “time/metabolism-dependent inactivation” and the “type of inhibition of CYP3A4” value was “competitive inhibition”. For the same compound, the “type of inhibition of CYP2C8” value in the data set on CYP2C8 [13] is listed as “competitive inhibition”. Besides, the “clinical classification as inhibitor of P-glycoprotein” value at P-glycoprotein (P-gp) [3] is on record as “weak inhibitor”. Moreover, the “clinical classification as inhibitor of P-glycoprotein” value at P-glycoprotein (P-gp) [3] (listed as tucatinib) is reported as “only weakly inhibits”.
